The target in the assay is Protein arginine N-methyltransferase 5/MEP50 complex (Homo sapiens). Kind of assay: Inhibition of full-length recombinant PRMT5/full-length recombinant MEP50 (unknown origin) expressed in baculovirus infected Sf21 cells using biotinylated H4R3(Mel) peptide as substrate preincubated for 60 mins followed by substrate addition and measured for 150 minutes in the presence of SAM by methylation assay.

With `CC(=O)N1CCC(Nc2cc(C(=O)N3CC[C@H](N4CCc5ccccc5C4)[C@@H](O)C3)c(F)cn2)CC1`, the concentration giving a half-maximal response (EC50) was 900 pM.

Usually EC50 stands for the midpoint of the concentration-response curve.

Values taken from BindingDB's records for doi:10.1021/acs.jmedchem.3c00250 (n/a, 2023).
